Test results reported in PMC3433420 (PLoS ONE, 2012).
Residues, ends and D or L forms follow the SMILES beside them.

Key:
HSH2D SH2 domain = target: T1, HSH2D SH2 domain (Homo sapiens, UniProt Q96JZ2); experiment: FP saturation binding assay
T1 sequence (Q96JZ2 34-125 limits assumed): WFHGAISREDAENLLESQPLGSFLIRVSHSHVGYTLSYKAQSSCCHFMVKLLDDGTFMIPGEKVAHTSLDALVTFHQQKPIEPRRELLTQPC

SH2D1A SH2 domain = target: T2, SH2D1A SH2 domain (Homo sapiens, UniProt O60880); experiment: FP saturation binding assay
T2 sequence (O60880 6-104 limits assumed): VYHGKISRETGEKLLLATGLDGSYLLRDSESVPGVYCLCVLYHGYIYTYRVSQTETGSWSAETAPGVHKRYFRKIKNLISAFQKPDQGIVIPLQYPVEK

[1] = target: T3, PLCG1-NC tandem SH2 domains (Homo sapiens, UniProt P19174); experiment: FP saturation binding assay; conditions: Protein PLCG1-NC; FP saturation binding, high-confidence ErbB interactions; mean over replicate hits
T3 construct: the tandem protein was included in our analysis with all internal amino acids linking the domains; 6X His; thioredoxin; made in house; host or cells: E. coli BL21(DE3)pLysS
T3 sequence (P19174 550-756 limits assumed): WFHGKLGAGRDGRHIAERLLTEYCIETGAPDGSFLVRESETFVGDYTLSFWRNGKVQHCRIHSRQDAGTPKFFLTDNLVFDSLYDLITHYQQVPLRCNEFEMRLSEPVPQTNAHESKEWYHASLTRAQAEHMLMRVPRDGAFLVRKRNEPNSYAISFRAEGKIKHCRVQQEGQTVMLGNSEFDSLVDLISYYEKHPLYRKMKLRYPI

GRAP2 SH2 domain = target: T4, GRAP2 SH2 domain (Homo sapiens, UniProt O75791); experiment: FP saturation binding assay
T4 sequence (O75791 58-149 limits assumed): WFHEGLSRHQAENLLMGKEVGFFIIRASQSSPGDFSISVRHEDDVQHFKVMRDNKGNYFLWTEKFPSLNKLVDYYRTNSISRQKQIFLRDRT

PIK3R3-C SH2 domain = target: T5, PIK3R3-C SH2 domain (Homo sapiens, UniProt Q92569); experiment: biochemical; type: binding; conditions: protein PIK3R3-C; high-confidence ErbB interactions; mean of replicate hits
T5 construct: thioredoxin; made in house; host or cells: E. coli BL21(DE3)pLysS

RASA1-N SH2 domain = target: T6, RASA1-N SH2 domain (Homo sapiens, UniProt P20936); experiment: FP saturation binding assay
T6 sequence (P20936 181-272 limits assumed): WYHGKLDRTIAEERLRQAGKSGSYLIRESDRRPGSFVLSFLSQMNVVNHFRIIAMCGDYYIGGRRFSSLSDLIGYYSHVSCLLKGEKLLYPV

LCK SH2 domain = target: T7, LCK SH2 domain (Homo sapiens, UniProt P06239); experiment: FP saturation binding assay; conditions: protein LCK; high-confidence ErbB interactions; mean of replicate hits
T7 construct: 93 SH2 and 2 PTB domain-containing constructs; 6X His; thioredoxin; made in house; host or cells: E. coli BL21(DE3)pLysS
Method in brief: (§1)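 KD values come from least-squares fits of fluorescence polarization (ex 530, em 555 nm), corrected for thioredoxin nonspecific binding and plate baseline, with outliers pruned. Fixed 10 nM labeled peptide met a 0.002–10 µM protein series for 20 min at room temperature in HEPES/KCl/Tween/DTT buffer, pH 7.8.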

PTK6 SH2 domain = target: T8, PTK6 SH2 domain (Homo sapiens, UniProt Q13882); experiment: FP saturation binding assay; conditions: protein PTK6; high-confidence ErbB interactions; mean of replicate hits
T8 construct: from the PTK6 SH2 domain; 6X His; thioredoxin; made in house; host or cells: E. coli BL21(DE3)pLysS
Method in brief: as §1

T8 sequence (Q13882 78-170 limits assumed): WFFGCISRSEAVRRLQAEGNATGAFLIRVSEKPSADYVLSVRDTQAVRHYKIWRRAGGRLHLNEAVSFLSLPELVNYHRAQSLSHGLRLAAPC
T7 sequence (P06239 127-224 limits assumed): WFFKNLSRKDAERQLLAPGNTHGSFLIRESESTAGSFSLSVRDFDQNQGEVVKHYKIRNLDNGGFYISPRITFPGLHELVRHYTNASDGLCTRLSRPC

SMILES: CC(C)C[C@H](NC(=O)[C@H](Cc1ccc(OP(=O)(O)O)cc1)NC(=O)[C@H](CCC(=O)O)NC(=O)[C@@H]1CCCN1C(=O)[C@H](CC(N)=O)NC(=O)CN)C(=O)N[C@@H](CC(N)=O)C(=O)N[C@H](C(=O)N[C@H](C(=O)N[C@@H](CCC(N)=O)C(=O)N1CCC[C@H]1C(=O)N[C@H](C(=O)N[C@@H](CC(=O)O)C(=O)O)[C@@H](C)O)C(C)C)[C@@H](C)O [ErbB1 1138 13-mer] (HELM PEPTIDE1{G.N.P.E.[O=C([C@H](Cc1ccc(OP(=O)(O)O)cc1)N[*:1])[*:2]].L.N.T.V.Q.P.T.D}$$$$V2.0)
- Kd (HSH2D SH2 domain): 3.41 µM
- Kd (SH2D1A SH2 domain): 9.44 µM
- Kd [1]: 5.35 µM
- Kd (GRAP2 SH2 domain): 4.82 µM

SMILES: CC(C)C[C@H](NC(=O)[C@H](CO)NC(=O)[C@H](Cc1c[nH]cn1)NC(=O)[C@H](CC(N)=O)NC(=O)[C@H](Cc1c[nH]c2ccccc12)NC(=O)[C@H](Cc1ccc(OP(=O)(O)O)cc1)NC(=O)[C@H](CC(=O)O)NC(=O)[C@@H]1CCCN1C(=O)[C@H](CC(N)=O)NC(=O)[C@@H](N)CC(=O)O)C(=O)N1CCC[C@H]1C(=O)N1CCC[C@H]1C(=O)N[C@@H](CC(=O)O)C(=O)O [ErbB4 1242 13-mer] (HELM PEPTIDE1{D.N.P.D.[O=C([C@H](Cc1ccc(OP(=O)(O)O)cc1)N[*:1])[*:2]].W.N.H.S.L.P.P.D}$$$$V2.0)
- Kd (HSH2D SH2 domain): 7.37 µM
- Kd (PIK3R3-C SH2 domain): 8.29 µM
- Kd (RASA1-N SH2 domain): 5.03 µM
- Kd (LCK SH2 domain): 4.46 µM
- Kd (PTK6 SH2 domain): 2.76 µM
